These results are taken from PMC3514016 (The international journal of biochemistry & cell biology, 2009).

Where a SMILES comes first, the peptide text is derived from it. The star is where a group is joined. AMC = Cc1cc(=O)oc2cc(N*)ccc12; Cbz = O=C(OCc1ccccc1)*

The assay has as its target Human CatB (human wild-type cathepsin B) (Homo sapiens, UniProt P07858, S194A). The conditions noted are these: read-out: Human CatB / Km; 37 °C; pH not stated for the Km assay.

As for `Cc1cc(=O)oc2cc(NC(=O)[C@H](CCCNC(=N)N)NC(=O)[C@H](CCCNC(=N)N)NC(=O)OCc3ccccc3)ccc12` [Z-Arg-Arg-AMC] (Cbz-Arg-Arg-{AMC}), the Km amounted to 100 µM. The figure for `Cc1cc(=O)oc2cc(NC(=O)[C@H](CCCNC(=N)N)NC(=O)[C@H](Cc3ccccc3)NC(=O)OCc3ccccc3)ccc12` [Z-Phe-Arg-AMC] (Cbz-Phe-Arg-{AMC}) is 47 µM.
